Experimental data: publication PMC6769532 (International Journal of Molecular Sciences, 2019)

T1: Riboflavin transporter 2 (RFVT2) (Homo sapiens, UniProt Q9HAB3)
T1 construct: gene SLC52A2; hRFVT2 carrying an N-terminal 6-Histidine tag
T1 sequence (Q9HAB3 1-445): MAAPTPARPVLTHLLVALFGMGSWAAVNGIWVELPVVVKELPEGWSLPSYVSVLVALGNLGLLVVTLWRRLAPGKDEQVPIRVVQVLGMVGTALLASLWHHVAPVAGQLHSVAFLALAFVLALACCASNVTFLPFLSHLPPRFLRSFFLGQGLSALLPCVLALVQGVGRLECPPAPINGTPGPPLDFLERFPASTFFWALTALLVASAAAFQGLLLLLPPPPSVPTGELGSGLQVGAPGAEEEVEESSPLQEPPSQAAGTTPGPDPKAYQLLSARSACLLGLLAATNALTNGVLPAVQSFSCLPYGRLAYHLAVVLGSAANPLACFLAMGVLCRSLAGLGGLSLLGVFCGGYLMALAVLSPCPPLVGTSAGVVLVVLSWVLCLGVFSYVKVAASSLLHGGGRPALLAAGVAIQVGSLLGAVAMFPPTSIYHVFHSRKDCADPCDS


Assays:
[1] = target: T1, Riboflavin transporter 2 (RFVT2); test: inhibition of [3H]riboflavin uptake in proteoliposomes with purified recombinant RFVT2, dose-response; format: biochemical
[2] = substrate: Cc1cc2nc3c(=O)[nH]c(=O)nc-3n(C[C@H](O)[C@H](O)[C@H](O)CO)c2cc1C; test: purified protein

Molecule | IC50 [1] [µM] | Km [2] [µM]
Cc1cc2nc3c(=O)[nH]c(=O)nc-3n(C[C@H](O)[C@H](O)[C@H](O)COP(=O)(O)O)c2cc1C [FMN] | 3.3 ± 0.8 | –
Riboflavin transporter 2 (RFVT2) (Homo sapiens) (protein) MAAPTPARPVLTHLLVALFGMGSWAAVNGIWVELPVVVKELPEGWSLPSYVSVLVALGNLGLLVVTLWRRLAPGKDEQVPIRVVQVLGMVGTALLASLWHHVAPVAGQLHSVAFLALAFVLALACCASNVTFLPFLSHLPPRFLRSFFLGQGLSALLPCVLALVQGVGRLECPPAPINGTPGPPLDFLERFPASTFFWALTALLVASAAAFQGLLLLLPPPPSVPTGELGSGLQVGAPGAEEEVEESSPLQEPPSQAAGTTPGPDPKAYQLLSARSACLLGLLAATNALTNGVLPAVQSFSCLPYGRLAYHLAVVLGSAANPLACFLAMGVLCRSLAGLGGLSLLGVFCGGYLMALAVLSPCPPLVGTSAGVVLVVLSWVLCLGVFSYVKVAASSLLHGGGRPALLAAGVAIQVGSLLGAVAMFPPTSIYHVFHSRKDCADPCDS | – | 0.26 ± 0.07
